Experimental data as given in publication PMC11539218 (Antimicrobial Agents and Chemotherapy, 2024).

Assay: Stability in plasma under handling and storage conditions (HPLC)
Format: in vitro ADME
Method: The detection and quantification of compound 1 in the blood matrices were performed after sample processing, using a liquid-liquid extraction methodology. First, 100 µL of plasma was enriched with 10 µL of PI (0.8 µg/mL). Subsequently, 500 µL of hexane was added and the mixture was vortexed for 1 min and centrifuged at 22,082 × g for 5 min. The organic phase was collected in glass tubes and the aqueous phase was subjected to the liquid-liquid extraction procedure again. In the end, the combined organic samples were completely evaporated at 60°C under nitrogen flow and reconstituted in 100 µL of 40:60 ACN:H2O + 0.1% orthophosphoric acid (pH 2.08). Finally, the extracts were centrifuged at 22,082 × g for 2 min and injected into the chromatographic system. Chromatographic analyses by HPLC were performed using a C18 column (Purospher Star LiChroCART, 55 × 4 mm, 3 µm) with gradient elution (Table 1).
Method validation was performed following the guidelines for bioanalytical methods validation of the Food and Drug Administration and European Medicines Agency ([29], [30]). Thus, the acceptance criteria set out in these guides were adopted for the parameters of selectivity, linearity, precision, accuracy, lower limit of quantification (LLOQ), and stability. Quality controls of the lower limit of quantification (QCLOQ—0.03 µg/mL), low (QC1—0.08 µg/mL), medium (QC2—2 µg/mL), and high (QC3—5 µg/mL), were also established in accordance with the guides. […] In addition, stability was established after exposure to different conditions, mimicking storage and handling throughout the experimental process (Table 2).

Structure (SMILES): C=CCc1cc(OC)c(OCc2ccc(OC)cc2)c(Oc2ccc(CN3CCOCC3)cc2OC)c1 [compound 1, 4-(4-(5-allyl-3-methoxy-2-((4-methoxybenzyl)oxy)phenoxy)-3-methoxybenzyl)morpholine]
- Stability/reference analyte concentration (%) (0.08 µg/mL, processed sample, 2 h at room temperature): 98.35%
- Stability/reference analyte concentration (%) (0.08 µg/mL, processed sample, 24 h at 4°C): 99.12%
- Stability/reference analyte concentration (%) (0.08 µg/mL, unprocessed sample, 2 h at room temperature): 86.54%
- Stability/reference analyte concentration (%) (0.08 µg/mL, unprocessed sample, 6 h at 4°C): 91.74%
- Stability/reference analyte concentration (%) (0.08 µg/mL, unprocessed sample, 24 h at 4°C): 87.07%
- Stability/reference analyte concentration (%) (0.08 µg/mL, unprocessed sample, 15 days at −20°C): 85.36%
- Stability/reference analyte concentration (%) (0.08 µg/mL, unprocessed sample, 30 days at −20°C): 92.66%
- Stability/reference analyte concentration (%) (0.08 µg/mL, unprocessed sample, freezing/thawing): 88.58%
- Stability/reference analyte concentration (%) (5.00 µg/mL, processed sample, 2 h at room temperature): 100.43%
- Stability/reference analyte concentration (%) (5.00 µg/mL, processed sample, 24 h at 4°C): 98.84%
- Stability/reference analyte concentration (%) (5.00 µg/mL, unprocessed sample, 2 h at room temperature): 90.90%
- Stability/reference analyte concentration (%) (5.00 µg/mL, unprocessed sample, 6 h at 4°C): 95.92%
- Stability/reference analyte concentration (%) (5.00 µg/mL, unprocessed sample, 24 h at 4°C): 91.65%
- Stability/reference analyte concentration (%) (5.00 µg/mL, unprocessed sample, 15 days at −20°C): 90.53%
- Stability/reference analyte concentration (%) (5.00 µg/mL, unprocessed sample, 30 days at −20°C): 93.24%
- Stability/reference analyte concentration (%) (5.00 µg/mL, unprocessed sample, freezing/thawing): 97.49%
